Literature values, collected in US20120141611A1, “METHODS AND COMPOSITIONS USING ERGOTHIONEINE TO TREAT A VARIETY OF HEALTH RELATED FACTORS” (Oxis International Inc., priority 2010, published 2012).
≈ marks a conversion by molar mass, not a printed value. Where “and” joins values, the source holds several entries; their conditions need not be identical. Equal values may be shown once. Read-outs that look alike come from different tables or passages of the source.

Tests used:
[1] = low concentrations; cited from earlier work
[2] = physiological concentrations; cited from earlier work
[3] = Dog, cited from earlier work
Cu/Zn SOD = Cu/Zn SOD (Mus musculus, UniProt P08228); conditions: 12.5 mM; cited from earlier work
Chain of Cu/Zn SOD (P08228 whole entry): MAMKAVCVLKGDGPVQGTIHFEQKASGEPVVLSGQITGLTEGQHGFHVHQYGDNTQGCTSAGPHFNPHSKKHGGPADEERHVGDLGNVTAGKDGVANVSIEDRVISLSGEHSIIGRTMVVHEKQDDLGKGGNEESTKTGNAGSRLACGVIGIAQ

human platelets = human platelets in vitro; cited from earlier work
[4] = cited from earlier work
cerebellum = conditions: decerebrate rabbit; cited from earlier work
[5] = Pig; cited from earlier work
[6] = cited from earlier work; remark: listed apart in the source
[7] = cited from earlier work; remark: listed apart in the source
[8] = room temperature; cited from earlier work
[9] = physiologic pH, does not auto-oxidize; cited from earlier work
hepatic microsomes = conditions: NADPH or ascorbic acid challenge; cited from earlier work
[10] = <1 nmol/gm liver versus dietary-augmented animals 1400 nmol/gm liver; cited from earlier work
isolated rabbit heart = conditions: cited from earlier work
glutathione peroxidase = conditions: mouse liver cytosol fractions; cited from earlier work
[11] = 225 g rat, controlled diet of ergothioneine supplementation

C[N+](C)(C)[C@@H](Cc1c[nH]c(=S)[nH]1)C(=O)[O-] [Ergothioneine, ergothioneine]
Radioprotection in vitro [1]: very potent radioprotector even at low concentrations
Inactivation of hydroxyl radical [2]: potent diffusion-controlled inactivation
Concentration of LE in tissue ([3]; Heart): 8.9 mgs/100 gm fresh tissue
Concentration of LE in tissue ([3]; Kidney): 1.6 mgs/100 gm fresh tissue
Concentration of LE in tissue ([3]; Liver): 0.9 mgs/100 gm fresh tissue
Concentration of LE in tissue ([3]; Lungs): 0.6 mgs/100 gm fresh tissue
Concentration of LE in tissue ([3]; RBC): 6.6 mgs/100 gm fresh tissue
Concentration of LE in tissue ([3]; Spleen): 1.1 mgs/100 gm fresh tissue
Concentration of LE in tissue ([3]; Testes): 0.0 mgs/100 gm fresh tissue
Concentration of l-ergothioneine in the blood [3]: 3-6 mg/100 ml blood
Cytosolic Cu/Zn SOD activity (Cu/Zn SOD): no increased activity
CO2 production from pyruvate (human platelets): increases in CO2 production from pyruvate
Production of lactate (human platelets): decreased production of lactate
Absorptive gain per day [4, 11]: 20 µg/day
Fecal and urine loss [4, 11]: 2 ug/per day
Fraction of dietary ergothioneine absorbed ([4]; 225 gm rat, 20 ug/day in the diet (Mayumi et al.)): 90%
Time to double the total body amount of ergothioneine ([4]; rat, 89 ug ergothioneine/kg-day supplementation): approximately 2 months
Accumulation rate ([4]; rat, from gain and loss per day): 90%
Action on the electrical activity of the cerebellum (cerebellum): some excitatory action
Concentration of l-ergothioneine in the blood [5]: 3-27 mg/100 ml blood
Concentration of LE in the lens of the human eye ([6]; Hypermature cataract): 60.8 mg LE/100 gm and 60.8 +/− 9.8 mg LE/100 gm
Concentration of LE in the lens of the human eye ([6]; Immature cortical cataract): 79.6 mg LE/100 gm and 79.4 +/− 11.7 mg LE/100 gm
Concentration of LE in the lens of the human eye ([6]; Immature nuclear cataract): 94.2 mg LE/100 gm and 94.2 +/− 7.3 mg LE/100 gm
Concentration of LE in the lens of the human eye ([6]; Mature cataract): 71.7 mg LE/100 gm and 71.7 +/− 13.7 mg LE/100 gm
Concentration of LE in the lens of the human eye ([6]; Normal lens): 115.7 mg LE/100 gm and 115.7 +/− 6.3 mg LE/100 gm
Sulfur label recovered in the urine as free sulfate ([7]; 35S-ergothioneine): 35-65%
Dose recovered by urinary excretion ([7]; bolus injected, in approximately 6 hours): 60%
Share of urine products identified as ergothioneine ([7]; bolus injected): About one-third
Share of urine products identified as hercynine ([7]; bolus injected): About one-third
Solubility limit [8]: 900 mM (≈ 206 mg/mL)
Stability in aqueous solution [9]: very stable in aqueous solution
NADPH-dependent enzymatic lipid peroxidation (hepatic microsomes): inhibits
Increase in hepatic lipid peroxidation in partially LE-deficient rats [10]: 40%
Protection against ischemia-reperfusion injury (isolated rabbit heart): failed to protect
Glutathione peroxidase activity (glutathione peroxidase): markedly increased
